Test results published in publication PMC3879368, “Characterisation of a Multi-ligand Binding Chemoreceptor CcmL (Tlp3) of Campylobacter jejuni” (PLoS Pathogens, 2014).
Values joined by “and” are separate entries in the source; they are usually repeats but may differ in a detail not shown here. Equal values may be shown once. “Also recorded” adds a separate entry of the source.

test system: recombinant Tlp3 periplasmic sensory domain peptide; assay: Amino acid and small molecule array binding assay; parameters: species or system Campylobacter jejuni; key: Y: positive binding significantly above background; N: binding not significantly above background; details: compounds covalently bound to an epoxide group
Procedure: (§1) The array assay presents the compounds covalently bound to an epoxide group resulting in a high probability of a single molecular orientation. The plate assay relies on non-covalent charge and hydrophobic/hydrophilic interactions for presentation of the molecules offering a different presentation to the array.
(§2) Amino acid and small molecule arrays and plate based binding assays were performed as previously described.. […] SPR experiments were performed using a Biacore T100 biosensor system (GE- healthcare) at 25°C in 1× PBS pH 7.2 at a flow rate of 30 µl/min. […] Amino acids were prepared in 1 × PBS pH 7.2 and serially diluted from 0.0125 to 0.2 mM. The amino acids were loaded to the sensor chip using single-cycle kinetics, i.e. after the injection of five amino acid dilutions the chip was regenerated with EDTA. Subsequently, the chip was re-loaded with Ni^2+ and His-Tlp3 before the injection of the next amino acid to be tested. A 10 min dissociation time was allowed after the addition of each analyte. SPR signals were analyzed using the Biacore Evaluation software to determine KD.
Throughout, for Chemotactic response: key: +: positive response (chemoattractant); −: negative response (chemorepellent).

| Compound | Array binding |
| --- | --- |
| NCCCC[C@H](N)C(=O)O [Lysine] | N |
| CC[C@H](C)[C@H](N)C(=O)O [Isoleucine] | Y |
| N[C@@H](CC(=O)O)C(=O)O [Aspartate] | N |
| N=C(N)NCCC[C@H](N)C(=O)O [Arginine] | N |
| O=C(O)CCC(=O)C(=O)O [α-ketoglutarate] | Y |

test system: C. jejuni 11168-O Δtlp3; assay: not given; assay type: cell-based, Campylobacter jejuni; details: attractants

| Compound | Reduction in bacterial numbers migrating towards ligand, Δtlp3 compared to wild type [log] |
| --- | --- |
| CC[C@H](C)[C@H](N)C(=O)O [Isoleucine] | 4 |
| O=C(O)/C=C/C(=O)O [Fumaric Acid] | 4 |
| N[C@@H](CC(=O)O)C(=O)O [Aspartate] | 3 |
| c1ncc2nc[nH]c2n1 [Purine] | 1 |
| O=C(O)CC(O)C(=O)O (stereo not shown) [Malic Acid] | 2 |

same assay, conditions: repellents

| Compound | Increase in bacterial numbers around ligand plug, Δtlp3 compared to wild type [log] |
| --- | --- |
| NCCCC[C@H](N)C(=O)O [Lysine] | 2 |
| N[C@H]1C(O)O[C@H](CO)[C@@H](O)[C@@H]1O (stereo partly shown) [Glucosamine] | 3 |
| N=C(N)NCCC[C@H](N)C(=O)O [Arginine] | 1 |
| Cc1ncc(C[n+]2csc(CCO)c2C)c(N)n1 [Thiamine] | 1 |
| O=C(O)CCC(=O)O [Succinic Acid] | 1 |

same assay, conditions: Δtlp3; plug with 2 mM ligand; 37°C, 4 h

| Compound | Viable counts of C. jejuni associated with ligand plug |
| --- | --- |
| NCCCC[C@H](N)C(=O)O [Lysine] | 2.4 × 10^5 cfu/ml |
| CC[C@H](C)[C@H](N)C(=O)O [Isoleucine] | 3.6 × 10^2 cfu/ml |
| N[C@H]1C(O)O[C@H](CO)[C@@H](O)[C@@H]1O (stereo partly shown) [Glucosamine] | 7.8 × 10^6 cfu/ml |
| O=C(O)/C=C/C(=O)O [Fumaric Acid] | 9 × 10^2 cfu/ml |
| N[C@@H](CC(=O)O)C(=O)O [Aspartate] | 3.7 × 10^3 cfu/ml |
| c1ncc2nc[nH]c2n1 [Purine] | 1.08 × 10^5 cfu/ml |
| N=C(N)NCCC[C@H](N)C(=O)O [Arginine] | 6.8 × 10^7 cfu/ml |
| Cc1ncc(C[n+]2csc(CCO)c2C)c(N)n1 [Thiamine] | 9 × 10^6 cfu/ml |
| O=C(O)CC(O)C(=O)O (stereo not shown) [Malic Acid] | 1.13 × 10^3 cfu/ml |
| O=C(O)CCC(=O)O [Succinic Acid] | 2 × 10^7 cfu/ml |

biological target: His-Tlp3 (Campylobacter jejuni, UniProt Q0P864); assay: biochemical; assay type: binding; details: not given
Sequence (Q0P864 entry or part of it): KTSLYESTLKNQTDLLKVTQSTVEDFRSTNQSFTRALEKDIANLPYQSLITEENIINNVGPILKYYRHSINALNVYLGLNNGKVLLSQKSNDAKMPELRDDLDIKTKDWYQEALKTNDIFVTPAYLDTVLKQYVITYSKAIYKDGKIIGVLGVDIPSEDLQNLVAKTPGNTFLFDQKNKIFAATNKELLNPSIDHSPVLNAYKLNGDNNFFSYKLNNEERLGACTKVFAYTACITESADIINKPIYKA
Procedure: as §2
All interactions present were tested with a two-fold serial dilution between 12.5 and 200 µM. (TIF) Click here for additional data file.

| Compound | Kd [µM] |
| --- | --- |
| O=C(O)/C=C/C(=O)O [Fumaric Acid] | > 10000 |

same assay, conditions: Binding Affinity (KD), SPR, 25°C, 1× PBS pH 7.2

| Compound | Kd |
| --- | --- |
| NCCCC[C@H](N)C(=O)O [Lysine] | ~2.8 µM and 2.8 µM |
| N[C@H]1C(O)O[C@H](CO)[C@@H](O)[C@@H]1O (stereo partly shown) [Glucosamine] | 7.77 µM |
| c1ncc2nc[nH]c2n1 [Purine] | 38.3 µM |
| Cc1ncc(C[n+]2csc(CCO)c2C)c(N)n1 [Thiamine] | < 50 µM |
| O=C(O)CCC(=O)O [Succinic Acid] | 33.2 µM |

same assay, conditions: SPR

| Compound | Dissociation rate from Tlp3 (in words) |
| --- | --- |
| N[C@H]1C(O)O[C@H](CO)[C@@H](O)[C@@H]1O (stereo partly shown) [Glucosamine] | slow disassociation rates |
| O=C(O)CC(O)C(=O)O (stereo not shown) [Malic Acid] | slow disassociation rates |

same assay, conditions: SPR, 25°C, 1× PBS pH 7.2; read-out: Binding Affinity (KD)

| Compound | Kd [µM] |
| --- | --- |
| O=C(O)CCC(=O)C(=O)O [α-ketoglutarate] | 296 |

same assay, conditions: ratio of SPR KD values

| Compound | Binding affinity of lysine relative to arginine, fold stronger [fold] |
| --- | --- |
| NCCCC[C@H](N)C(=O)O [Lysine] | ~14 |

same assay, conditions: two-fold serial dilution between 12.5 and 200 µM

| Compound | SPR interaction with Tlp3 (in words) |
| --- | --- |
| NC(=O)C[C@H](N)C(=O)O [asparagine] | No interaction observed |
| C[C@H](N)C(=O)O [alanine] | No interaction observed |

test system: recombinant Cj1564 (Tlp3) periplasmic sensory domain peptide; assay: 1H STD-NMR analysis, single ligand and competition; assay type: binding, Campylobacter jejuni; details: 283 K, ligand alone with Tlp3
Procedure: Recombinant Tlp3 (1 mg/mL, 100 µL) dissolved in D2O (99.99% D Cambridge Isotopes) containing 50 mM NaCl and 50 mM KH2PO4 and added to various ligands (1 mg/mL, 150 µL ∼150 mole equivalents) also dissolved in D2O (99.99% D Cambridge Isotopes) containing 50 mM NaCl and 50 mM KH2PO4 to give a total volume of 250 µL in a 3 mm NMR tube for NMR analysis. Control samples were prepared in an identical manner without Tlp3 added. All NMR experiments were performed on a Bruker Avance 600 MHz spectrometer, equipped with a 5-mm TXI probe with triple axis gradients at 283 K without sample spinning. ^1H NMR spectra were acquired with 32 scans, a 2 s relaxation delay over a spectral width of 6000 Hz. Solvent suppression of the residual HDO peak was achieved by continuous low-power presaturation pulse during the relaxation delay. […] A 100 µs delay between each soft pulse was applied, resulting in a total saturation time of 2 s and 2 K scans.
Data were obtained with an interspersed acquisition of pseudo-two-dimensional on-resonance and off-resonance spectra in order to minimize the effects of temperature and magnet instability. On- and off-resonance spectra were processed separately, and the final STD-NMR spectrum was obtained by subtracting the individual on- and off-resonance spectra, resulting in less subtraction artefacts. Relative STD effects were calculated according to the equation ASTD = (I0−Isat)/I0 = ISTD/I0 by comparing the intensity of the signals in the STD-NMR spectrum (ISTD) with signal intensities of a reference spectrum (I0). The STD signal with the highest intensity was set to 100% and other STD signals were calculated accordingly. A spin lock field of 10 ms was applied to remove unwanted background protein signals. […] Control STD-NMR experiments were performed using an identical experimental setup and the same ligand concentration but in the absence of the protein.

| Compound | STD-NMR binding to Tlp3 (in words) |
| --- | --- |
| NCCCC[C@H](N)C(=O)O [Lysine] | Binding was observed |
| CC[C@H](C)[C@H](N)C(=O)O [Isoleucine] | Binding was observed |
| N[C@H]1C(O)O[C@H](CO)[C@@H](O)[C@@H]1O (stereo partly shown) [Glucosamine] | No signals were detected |
| c1ncc2nc[nH]c2n1 [Purine] | Binding was observed |
| N=C(N)NCCC[C@H](N)C(=O)O [Arginine] | Binding was observed |
| O=C(O)CC(O)C(=O)O (stereo not shown) [Malic Acid] | No signals were detected |

same assay, conditions: pyrimidine ring protons; 283 K

| Compound | STD effect of H2 protons, fold lesser than H6 [fold] |
| --- | --- |
| c1ncc2nc[nH]c2n1 [Purine] | ~5 |

same assay, conditions: two ligands together with Tlp3

| Compound | Binding preference in competition STD experiments |
| --- | --- |
| CC[C@H](C)[C@H](N)C(=O)O [Isoleucine] | binds preferentially over arginine; also recorded: binds preferentially over lysine |
| c1ncc2nc[nH]c2n1 [Purine] | binds preferentially over lysine; also recorded: binds preferentially over arginine |
| N=C(N)NCCC[C@H](N)C(=O)O [Arginine] | preferential binding of arginine over lysine |

test system: C. jejuni 11168-O; assay: not given; assay type: cell-based, Campylobacter jejuni; details: not given

| Compound | Viable counts of C. jejuni associated with ligand plug |
| --- | --- |
| Cc1ncc(C[n+]2csc(CCO)c2C)c(N)n1 [Thiamine] | 4 × 10^5 cfu/ml |
| O=C(O)CCC(=O)O [Succinic Acid] | 1.5 × 10^6 cfu/ml |

same assay, conditions: data not shown

| Compound | Chemotaxis assay outcome (in words) |
| --- | --- |
| O=C(O)CCC(=O)C(=O)O [α-ketoglutarate] | not definitive |

same assay, conditions: nutrient depleted chemotaxis assay, 11168-O vs Δtlp3

| Compound | Chemotactic response |
| --- | --- |
| NCCCC[C@H](N)C(=O)O [Lysine] | − |
| CC[C@H](C)[C@H](N)C(=O)O [Isoleucine] | + |
| N[C@H]1C(O)O[C@H](CO)[C@@H](O)[C@@H]1O (stereo partly shown) [Glucosamine] | − |
| O=C(O)/C=C/C(=O)O [Fumaric Acid] | + |
| N[C@@H](CC(=O)O)C(=O)O [Aspartate] | + |
| c1ncc2nc[nH]c2n1 [Purine] | + |
| N=C(N)NCCC[C@H](N)C(=O)O [Arginine] | − |
| Cc1ncc(C[n+]2csc(CCO)c2C)c(N)n1 [Thiamine] | − |
| O=C(O)CC(O)C(=O)O (stereo not shown) [Malic Acid] | + |
| O=C(O)CCC(=O)O [Succinic Acid] | − |

same assay, conditions: wild type 11168-O; plug with 2 mM ligand; 37°C, 4 h

| Compound | Viable counts of C. jejuni associated with ligand plug |
| --- | --- |
| NCCCC[C@H](N)C(=O)O [Lysine] | 2.2 × 10^3 cfu/ml |
| CC[C@H](C)[C@H](N)C(=O)O [Isoleucine] | 6 × 10^6 cfu/ml |
| N[C@H]1C(O)O[C@H](CO)[C@@H](O)[C@@H]1O (stereo partly shown) [Glucosamine] | 1.68 × 10^3 cfu/ml |
| O=C(O)/C=C/C(=O)O [Fumaric Acid] | 4.14 × 10^6 cfu/ml |
| N[C@@H](CC(=O)O)C(=O)O [Aspartate] | 7.8 × 10^6 cfu/ml |
| c1ncc2nc[nH]c2n1 [Purine] | 1.4 × 10^6 cfu/ml |
| N=C(N)NCCC[C@H](N)C(=O)O [Arginine] | 1.3 × 10^6 cfu/ml |
| O=C(O)CC(O)C(=O)O (stereo not shown) [Malic Acid] | 9 × 10^5 cfu/ml |

test system: recombinant Tlp3 periplasmic sensory domain peptide; assay: 96-well plate binding assay; parameters: species or system Campylobacter jejuni; key: Y: positive binding significantly above background; N: binding not significantly above background; details: non-covalent presentation
Procedure: as §1, §2

| Compound | Plate assay |
| --- | --- |
| NCCCC[C@H](N)C(=O)O [Lysine] | Y |
| CC[C@H](C)[C@H](N)C(=O)O [Isoleucine] | Y |
| N[C@H]1C(O)O[C@H](CO)[C@@H](O)[C@@H]1O (stereo partly shown) [Glucosamine] | Y |
| O=C(O)/C=C/C(=O)O [Fumaric Acid] | Y |
| N[C@@H](CC(=O)O)C(=O)O [Aspartate] | Y |
| c1ncc2nc[nH]c2n1 [Purine] | Y |
| N=C(N)NCCC[C@H](N)C(=O)O [Arginine] | Y |
| Cc1ncc(C[n+]2csc(CCO)c2C)c(N)n1 [Thiamine] | Y |
| O=C(O)CC(O)C(=O)O (stereo not shown) [Malic Acid] | Y |
| O=C(O)CCC(=O)C(=O)O [α-ketoglutarate] | Y |
| O=C(O)CCC(=O)O [Succinic Acid] | Y |
